Measurements reported in publication PMC8187479, “Sugar phosphate activation of the stress sensor eIF2B” (Nature Communications, 2021).

Molecular target: T1, eIF2Bα (Homo sapiens, UniProt Q14232)
T1 construct: made in house; host or cells: E. coli BL21(DE3)
T1 sequence (Q14232 1-305): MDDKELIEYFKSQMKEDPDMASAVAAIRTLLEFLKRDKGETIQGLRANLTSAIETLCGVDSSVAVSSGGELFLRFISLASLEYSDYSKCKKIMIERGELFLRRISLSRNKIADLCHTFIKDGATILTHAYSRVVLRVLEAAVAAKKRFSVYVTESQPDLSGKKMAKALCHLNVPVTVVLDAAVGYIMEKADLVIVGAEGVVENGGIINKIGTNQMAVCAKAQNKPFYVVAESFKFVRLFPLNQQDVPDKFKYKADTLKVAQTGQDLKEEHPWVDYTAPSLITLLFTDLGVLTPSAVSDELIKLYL
Assay: MIDAS (mass spectrometry integrated with equilibrium dialysis) metabolite binding screen
Conditions: MIDAS metabolite binding screen with eIF2Bα; sheet "eIF2Ba"
Method: Metabolites were combined into four defined screening pools. […] To the reverse side, 300 μL of 50 μM per metabolite pool was aliquoted and sealed (metabolite chamber). Loaded dialysis plates were placed in the dark at 4 °C on a rotating shaker (120 rpm) and incubated for 40 h. Post-dialysis, metabolites were isolated from each chamber by cold methanol extraction. Each sample was analyzed in technical triplicate by FIA-MS on a SCIEX X500R QTOF MS with interspersed blanks injections. The input metabolite pools were assayed at the beginning, middle, and end of each MS method batch for QC and normalization.
MIDAS FIA-MS spectra were processed in SCIEX OS 1.6 software to determine metabolite abundances by integrating the mean area under the curve for each extracted ion chromatogram. For each dialysis replicate, log2(fold change) for each metabolite was calculated as the difference between the log2 abundance in the protein chamber and metabolite chamber. For each technical triplicate, up to one outlier was removed using a z-score cutoff of five (<0.1% of observations). The corrected technical replicates were collapsed to one mean fold-change summary per protein-metabolite pair. To remove fold-change variation that was not specific to a given metabolite-protein pair, the first three principal components of the total screening dataset were removed on a per metabolite pool basis by subtracting the projection of the first 3 principal components, creating log2(corrected fold change). Protein-metabolite z-scores were determined by comparing the target protein-metabolite log2(corrected fold change) to a no-signal model for that metabolite using measures of the central tendency (median) and standard deviation (extrapolated from the 25–75% quantiles), which are robust to the signals in the tails of a metabolite’s fold-change distribution. Z-scores were false-discovery rate controlled using Storey’s q-value (qvalue, R) and protein-metabolite interactions with q-values < 0.1 were considered significant.

SMILES | log2(corrected fold change)
Nc1nc2c(ncn2[C@@H]2O[C@@H]3COP(=O)(O)O[C@H]3[C@H]2O)c(=O)[nH]1 [Cyclic GMP] | 0.01224
NCCS [Cysteamine] | 0.01963
Nc1ccn([C@@H]2O[C@H](COP(=O)(O)OP(=O)(O)O)[C@@H](O)[C@H]2O)c(=O)n1 [Cytidine 5-diphosphate] | 0.02612
C[N+](C)(C)CCOP(=O)(O)OP(=O)([O-])OC[C@H]1O[C@@H](n2ccc(N)nc2=O)[C@H](O)[C@@H]1O [Cytidine 5-diphosphocholine] | -0.000615
Nc1ccn([C@@H]2O[C@H](COP(=O)(O)OP(=O)(O)OP(=O)(O)O)[C@@H](O)[C@H]2O)c(=O)n1 [Cytidine 5-triphosphate] | 0.04784
O=C(O)[C@@H](O)[C@H](O)[C@H](O)CO [D-Arabinonic acid] | -0.01209
OC[C@@H](O)C(O)[C@H](O)CO [D-Arabitol] | 0.006339
OC[C@H]1O[C@@H](O[C@H]2[C@H](O)[C@@H](O)[C@H](O)O[C@@H]2CO)[C@H](O)[C@@H](O)[C@@H]1O [D-Cellobiose] | -0.03103
O=C(O)[C@H](O)[C@@H](O)[C@H](O)[C@H](O)CO [D-Gluconic acid] | -0.01138
N[C@H]1C(O)O[C@H](COP(=O)(O)O)[C@@H](O)[C@@H]1O (stereo partly drawn) [D-Glucosamine 6-phosphate] | -0.005422
OC[C@H]1OC(O)[C@H](O)[C@@H](O)[C@@H]1O (stereo partly drawn) [D-Glucose] | -0.01874
O=C[C@H](O)[C@@H](O)[C@H](O)[C@H](O)C(=O)O [D-Glucuronic acid] | -0.01884
O=C1O[C@H]2[C@H](OC(O)[C@@H]2O)[C@@H]1O (stereo partly drawn) [D-Glucurono-6,3-lactone] | 0.01187
N[C@H](CCC(=O)O)C(=O)O [D-Glutamic acid] | -0.01634
O=C[C@H](O)CO [D-Glyceraldehyde] | -0.02892
O=C(O)CC[C@@H](O)C(=O)O [D-Hydroxyglutaric acid] | -0.0058
C[C@@H](O)C=O [D-Lactaldehyde] | -0.01671
OC[C@H]1O[C@@H](O[C@H]2[C@H](O)[C@@H](O)[C@H](O)O[C@@H]2CO)[C@H](O)[C@@H](O)[C@H]1O [D-Lactose] | -0.002139

SMILES | log2(corrected fold change)
CC(C)C[C@@H](O)C(=O)O [D-Leucic acid] | -0.0302
OC[C@H]1O[C@H](O[C@H]2[C@H](O)[C@@H](O)[C@H](O)O[C@@H]2CO)[C@H](O)[C@@H](O)[C@@H]1O [D-Maltose] | -0.003614
OC[C@H]1OC(O)[C@@H](O)[C@@H](O)[C@@H]1O (stereo partly drawn) [D-Mannose] | -0.01874
OC[C@H]1O[C@H](OC[C@H]2O[C@H](O[C@]3(CO)O[C@H](CO)[C@@H](O)[C@@H]3O)[C@H](O)[C@@H](O)[C@@H]2O)[C@H](O)[C@@H](O)[C@H]1O [D-Raffinose] | -0.02977
O=C[C@H](O)[C@H](O)[C@H](O)CO [D-Ribose] | -0.0769
O=C(O)[C@@H](O)[C@@H](O)[C@H](O)[C@@H](O)C(=O)O [D-Saccharic acid] | -0.01904
O=C(CO)[C@@H](O)[C@H](O)[C@H](O)[C@H](O)COP(=O)(O)O [D-Sedoheptulose 7-phosphate] | -0.01312
N[C@H](CO)C(=O)O [D-Serine] | -0.04824
OC[C@H]1O[C@H](O[C@H]2O[C@H](CO)[C@@H](O)[C@H](O)[C@H]2O)[C@H](O)[C@@H](O)[C@@H]1O [D-Trehalose] | -0.02052
O=C(CO)[C@@H](O)[C@H](O)CO [D-Xylulose] | -0.0769
O=C(O)CC[C@@H](O)C(=O)O [D-alpha-Hydroxyglutaric acid] | -0.0058
O=C(O)[C@@H](O)[C@H](O)[C@H](O)[C@@H](O)C(=O)O [D-galactaric acid] | 0.01388
CCCCCCCCCC(=O)O [Decanoic acid] | 0.004891
O=C1OC(C(O)CO)C(=O)C1=O (centres unmarked) [Dehydroascorbic acid] | 0.003317
Nc1ncnc2c1ncn2[C@H]1C[C@H](O)[C@@H](COP(=O)(O)OP(=O)(O)O)O1 [Deoxyadenosine diphosphate] | -0.1103
Nc1ncnc2c1ncn2[C@H]1C[C@H](O)[C@@H](COP(=O)(O)O)O1 [Deoxyadenosine monophosphate] | -0.0746
Nc1ccn([C@H]2C[C@H](O)[C@@H](COP(=O)(O)OP(=O)(O)OP(=O)(O)O)O2)c(=O)n1 [Deoxycytidine triphosphate] | -0.0001501

Same assay, conditions: MIDAS screen, sheet eIF2Ba; metabolites screened in pools 1-4; p-value and q-value given

SMILES | log2(corrected fold change)
Nc1ccn([C@@H]2O[C@H](CO)[C@@H](O)[C@H]2O)c(=O)n1 [Cytidine] | 0.2698
O=C(O)C(O)COP(=O)(O)O [D-3-Phosphoglyceric acid] | 0.07991
N[C@H](CC(=O)O)C(=O)O [D-Aspartate] | 0.03257
O=C1OC[C@@H](O)[C@H]1O [D-Erythrono-1,4-lactone] | -0.2396
O=C(COP(=O)(O)O)[C@@H](O)[C@H](O)[C@H](O)COP(=O)(O)O [D-Fructose 1,6-bisphosphate] | -0.7792
O=P(O)(O)OC[C@H]1OC(O)(CO)[C@@H](O)[C@@H]1O (stereo partly drawn) [D-Fructose 6-phosphate] | -0.1344
O=C(CO)[C@@H](O)[C@H](O)[C@H](O)CO [D-Fructose] | -0.09045
O=P(O)(O)O[C@H]1O[C@H](CO)[C@H](O)[C@H](O)[C@H]1O [D-Galactose 1-phosphate] | -0.1344
O=C[C@H](O)[C@@H](O)[C@@H](O)[C@H](O)CO [D-Galactose] | -0.09045
N[C@H]1C(O)O[C@H](CO)[C@@H](O)[C@@H]1O (stereo partly drawn) [D-Glucosamine] | 0.1378
O=P(O)(O)OC[C@H]1O[C@H](OP(=O)(O)O)[C@H](O)[C@@H](O)[C@@H]1O [D-Glucose 1,6-bisphosphate] | -0.7792
O=P(O)(O)O[C@H]1O[C@H](CO)[C@@H](O)[C@H](O)[C@H]1O [D-Glucose 1-phosphate] | -0.1344
O=C[C@H](O)COP(=O)(O)O [D-Glyceraldehyde 3-phosphate] | 0.09175
O=P(O)(O)OC[C@H](O)CO [D-Glycerol 1-phosphate] | 0.1183
O=P(O)(O)OC[C@H]1OC(O)[C@@H](O)[C@@H](O)[C@@H]1O (stereo partly drawn) [D-Mannose 6-phosphate] | -0.1344
O=C(O)[C@H]1CCCN1 [D-Proline] | -0.05584
O=C1CC[C@H](C(=O)O)N1 [D-Pyroglutamic Acid] | -0.09309
O=P(O)(O)O[C@H]1O[C@H](CO)[C@@H](O)[C@H]1O [D-Ribose 1-phosphate] | 0.3189
O=C[C@H](O)[C@H](O)[C@H](O)COP(=O)(O)O [D-Ribose 5-phosphate] | 0.3189
OC[C@@H](O)[C@@H](O)[C@H](O)[C@@H](O)CO [D-Sorbitol] | 0.05676
O=C(CO)[C@@H](O)[C@@H](O)[C@H](O)COP(=O)(O)O [D-Tagatose 6-phosphate] | -0.01162
O=C[C@H](O)[C@@H](O)[C@H](O)CO [D-Xylose] | -0.1354
O=C(CO)[C@@H](O)[C@H](O)COP(=O)(O)O [D-Xylulose 5-phosphate] | 0.3189
O=P(O)(O)O[C@@H]1[C@H](O)[C@H](O)[C@@H](OP(=O)(O)O)[C@H](OP(=O)(O)O)[C@H]1O [D-myo-Inositol-1,4,5-triphosphate] | 0.2026
Nc1nc2c(ncn2[C@H]2C[C@H](O)[C@@H](COP(=O)(O)O)O2)c(=O)[nH]1 [Deoxyguanylate] | 0.08261
CC(C)(COP(=O)(O)OP(=O)(O)OC[C@H]1O[C@@H](n2cnc3c(N)ncnc32)[C@H](O)[C@@H]1O)[C@@H](O)C(=O)NCCC(=O)NCCS [Dephosphocoenzyme A] | -0.1841
Nc1ncnc2c1ncn2[C@@H]1O[C@H](COP(=O)(O)OP(=O)(O)OP(=O)(O)OC[C@@H]2O[C@H](n3cnc4c(N)ncnc43)[C@@H](O)[C@H]2O)[C@@H](O)[C@H]1O [Diadenosine triphosphate] | -0.1669
